# Source: patent publication US10391168B1, “Anti-CD70 combination therapy” (University of Bern, priority 2014, dated 2019)
# Assays:
# [1] = system: human CD34+ CML stem/progenitor cells; test: Expression in human CML cells ex vivo from xenografted NSG mice; settings: imatinib 50 mg/kg daily, 2 weeks
# Text: (g-l) CD70 (g), SP1 (h), DNMT1 mRNA (i), and miR-29 expression (j-l) (qRT-PCR) in CD34^+ cells. (n-m) Correlation of CD70 expression with the expression of selected Wnt target genes RUNX1 (m) and WISP1 (n) in CD34^+ stem/progenitor cells from newly diagnosed chronic phase CML patients. Expression data are derived from a public repository for microarray data and are available under accession number E-MEXP-480 (EMBL EBI Arrayexpress). […] Statistics: (c-e), one-way ANOVA; (f-l), Student's t test; (m) and (n), Spearman correlation.
# (p-r) CD70 and CD27 expression were determined on primary human CML cells. […] After 2 weeks of treatment, mice were euthanized and CML cells were analyzed for the expression of CD70 and CD27 by FACS. […] (p-q) red lines, CD70 and CD27 antibodies; blue lines, respective isotype controls.
# [2] = system: human CD34+ CML stem/progenitor cells; test: Liquid culture of primary human CD34+ CML stem/progenitor cells: cell numbers, BrdU, viability; format: cell-based; settings: 7 days; anti-CD70 mAb 10 μg/ml, imatinib 1 μM, alone or combined
# in vivo = settings: NSG, mouse, plasma, oral, 50 mg/kg
# [3] = system: CD34+ stem/progenitor cells from newly diagnosed CML patients; test: Expression in FACS-sorted CD34+ CML stem/progenitor cells cultured ex vivo; settings: imatinib 1 μM, 7 days
# [4] = system: CD34+ stem/progenitor cells from healthy donors; test: Growth and colony formation of CD34+ stem/progenitor cells from BM of healthy donors; format: cell-based, human; settings: anti-CD70 mAb 10 μg/ml, imatinib 1 μM, alone or combined; 7 or 14 days
# SD-1 cells = test: Chou-Talalay drug combination study, growth inhibition of SD-1 cells (cell numbers after 72 h)
# [5] = system: human CD34+ CML stem/progenitor cells; test: Murine xenograft CML model: human CML cells in BM of NSG mice; format: in vivo
# KBM5r cells = test: miR-29 expression and anti-miR silencing in KBM5r cells (qRT-PCR); format: cell-based, human; settings: imatinib 1 μM, nilotinib 1 μM, ponatinib 0.1 μM; 72 h
# Experimental: MicroRNA concentrations were measured using TaqMan miRNA Assays for miR-29a, miR-29b, miR-29c, or RNU48 (Applied Biosystems), and qRT-PCR results were normalized to RNU48 expression.
# 48 h after transfection, cells were harvested and subjected to total RNA extraction and cDNA synthesis for qRT-PCR.
structure (smiles),measurement,setting,value
Cc1ccc(NC(=O)c2ccc(CN3CCN(C)CC3)cc2)cc1Nc1nccc(-c2cccnc2)n1 [imatinib],CD27 expression,[1],remained unchanged
same,CD70 expression on CD34+ CML stem/progenitor cells,[1],specifically increased CD70 expression on CD34+ CML stem/progenitor cells
same,"DNMT1 and miR-29a, miR-29b, miR-29c expression in CD34+ CML stem/progenitor cells",[1],"decreased the expression of DNMT1 and miR-29a, miR-29b, and miR-29c"
same,SP1 expression in CD34+ CML stem/progenitor cells,[1],up-regulation of SP1
same,cell proliferation (BrdU),[2],reduced cell proliferation
same,cell viability / cell death,[2],induced cell death
same,growth (cell numbers),[2],inhibited growth and proliferation
same,concentration at 2 weeks,in vivo,~1000 nM
same,CD70 protein expression,[3],increased CD70 protein expression
same,Dnmt 1 mRNA expression,[3],down-regulated
same,Dnmt3a mRNA expression,[3],down-regulated
same,SP1 mRNA expression,[3],increased
same,growth and colony formation of healthy donor CD34+ cells,[4],only marginally affected
same,"Fa (fraction affected), imatinib",SD-1 cells; imatinib 0.02 μM,0.001
same,"Fa (fraction affected), imatinib",SD-1 cells; imatinib 0.04 μM,0.040
same,"Fa (fraction affected), imatinib",SD-1 cells; imatinib 0.08 μM,0.149
same,"Fa (fraction affected), imatinib",SD-1 cells; imatinib 0.16 μM,0.201
same,"Fa (fraction affected), imatinib",SD-1 cells; imatinib 0.32 μM,0.243
same,"Fa (fraction affected), imatinib",SD-1 cells; imatinib 0.64 μM,0.351
same,"Fa (fraction affected), imatinib",SD-1 cells; imatinib 1.28 μM,0.432
same,"Fa (fraction affected), imatinib",SD-1 cells; imatinib 2.55 μM,0.527
same,"Fa (fraction affected), imatinib",SD-1 cells; imatinib 5.10 μM,0.689
same,"Fa (fraction affected), imatinib",SD-1 cells; imatinib 10.20 μM,0.791
same,frequencies and absolute numbers of CD45+CD33+ leukemia cells and CD34+ CML stem/progenitor cells in BM,"[5]; cells of patients 3, 4 and 5, 2 weeks of treatment",reduced cell frequencies and absolute numbers
same,eradication of CD34+ CML stem/progenitor cells in BM (NSG mice eradicated of treated),"[5]; patient 4 cells, 2 weeks of treatment",neither imatinib nor anti-CD70 mAb treatment alone eliminated all the CD34+ CML cells
same,CD45+CD33+ CML myeloid cell frequencies and absolute numbers in BM,"[5]; patient 4 cells, imatinib 50 mg/kg daily p.o., anti-CD70 mAb 10 mg/kg i.p. every 3rd day, 2 weeks",significantly reduced
same,"miR-29a, miR-29b, miR-29c expression",KBM5r cells,did not affect miR-29s
